Results: patent publication US20190322960A1, “FRAGRANCE COMPOSITIONS AND METHODS OF USE THEREOF” (TAKASAGO INTERNATIONAL CORPORATION, priority 2016, published 2019)

Experiments:
salivary alpha-amylase = test: Stress test (timed mathematical and word test), salivary alpha-amylase of panelists exposed to fragrance; assay type: in vivo, human; conditions: for effect on salivary alpha-amylase levels as compared to the DPG control (in words): exposed panelists, stress test; for % Change in Alpha-amylase (i.e., before versus after stress): panelists exposed during stress test, saliva before and immediately after stress test, DPG solvent, DPG control 51.9%
Procedure: (§1) Stress was induced in each panelist using a timed mathematical and word test, which was administered to panelists in a small group competition setting to induce stress in each of the panelists. At set time intervals during the test, each panelist was exposed to either a single fragrance compound or to a DPG control.
(§2) Saliva was collected for each panelist before and immediately after the stress test. Saliva samples were assayed for salivary alpha-amylase activity and salivary cortisol levels using a commercially available assay kit (e.g., Salimetrics®).
(§3) Table 1-A summarizes the percent change (i.e., before stress versus after stress) in the salivary alpha-amylase levels of panelists exposed to fragrance compounds of the present disclosure during the stress test. In addition, the table illustrates the statistical significance of the change in alpha-amylase levels (i.e., p-value or probability value, P) of each of the fragrance compounds as compared to DPG, representing the change in the control (i.e., just DPG without a fragrance compound before stress and after stress).
(§4) Saliva was collected before and immediately after the stress test. Saliva samples were assayed for salivary alpha-amylase activity and salivary cortisol levels using a commercially available assay kit (e.g., Salimetrics®).
as §3, with “5-A” for “1-A”

salivary cortisol = test: Stress test (timed mathematical and word test), salivary cortisol of panelists exposed to fragrance; assay type: in vivo, human; conditions: for effect on salivary cortisol levels as compared to the control (in words): exposed panelists, stress test; for % Change in Cortisol (i.e., before versus after stress): panelists exposed during stress test, saliva before and immediately after stress test, DPG solvent, DPG control 10.8%
Procedure: as §1, §2
as §3, with “Table 1-B” for “Table 1-A”, “salivary cortisol” for “salivary alpha-amylase”, “in salivary cortisol” for “in alpha-amylase”
as §4
as §3, with “Table 5-B” for “Table 1-A”, “salivary cortisol” for “salivary alpha-amylase”, “in salivary cortisol” for “in alpha-amylase”

SMILES	effect on salivary alpha-amylase levels as compared to the DPG control (in words) (salivary alpha-amylase)	% Change in Alpha-amylase (i.e., before versus after stress) (salivary alpha-amylase) [%]	effect on salivary cortisol levels as compared to the control (in words) (salivary cortisol)	% Change in Cortisol (i.e., before versus after stress) (salivary cortisol) [%]
CC1=CCC(C(C)CC2CCCC2=O)CC1 (centres unmarked) [2-(2-(4-methyl-3-cyclohexen-1-yl)propyl)cyclopentanone]	limited the increase in salivary alpha-amylase levels	33.5	the levels of salivary cortisol were limited	−10.6
C=C(C)[C@H]1CC=C(C)CC1 [Limonene, limonene]	limited the increase in salivary alpha-amylase levels	−15.9	–	21.05
CC(=O)OC(C)(C)C1CC=C(C)CC1 (centres unmarked) [Terpinyl Acetate, terpinyl acetate]	limited the increase in salivary alpha-amylase levels	16.5	the levels of salivary cortisol were limited	−9.1
